Patent US20240043427A1 (Gilead Sciences, Inc., priority 2020, published 2024)
Where “and” joins values, the source holds several entries; their conditions need not be identical. Equal values may be shown once. Read-outs that look alike come from different tables or passages of the source.

Tests used:
CD73 [1] = target: T1, CD73 (Homo sapiens (Human), UniProt P21589); test: CD73 Biochemical IC50 Assay; conditions: CD73 0.3 nM, AMP 15 uM, 25 mM Tris pH 7.4, 5 mM MgCl2
Description: CD73 Biochemical IC50 Assay
Compound serial dilutions were pre-spotted into Thermo Nunc assay plate. 50 μL CD73 enzyme buffer (CD73 purchased from R&D system=0.6 nM, 25 mM Tris, pH 7.4, 5 mM MgCl2) was added into the assay plate and incubated for 15 mins. […] The samples were run using Rapid fire.

CD73 [2] = target: T1, CD73; test: MDA-MB-231 Cell Based CD73 Activity Assay; conditions: MDA-MB-231-GFP cells, RPMI medium with 10% human plasma, 200 uM AMP
Description: MDA-MB-231 Cell Based CD73 Activity Assay
MDA-MB-231-GFP cells were seeded in 384-well plates (Greiner 781946) at a density of 10000 cells per well in 50 μL of RPMI medium with 10% HP (human plasma). Cells were plated into assay plate with compounds pre-spotted, for an overnight compound treatment. 50 μL of 400 μM AMP (final concentration 200 μM) using a Bio-tek dispenser. Plates were incubated for 100 mins. […] The samples were run using Rapid fire.

CD73 [3] = target: T1, CD73; test: MDA-MB-231 Cell Based CD73 Activity Assay (DMEM); conditions: MDA-MB-231-GFP cells, DMEM medium with 10% human plasma, 200 uM AMP
CD73 [4] = target: T1, CD73; assay type: biochemical; conditions: 1 mM NaH2PO4 in enzyme buffer, CD73 0.3 nM, AMP 15 uM

T1 sequence (P21589 27-574): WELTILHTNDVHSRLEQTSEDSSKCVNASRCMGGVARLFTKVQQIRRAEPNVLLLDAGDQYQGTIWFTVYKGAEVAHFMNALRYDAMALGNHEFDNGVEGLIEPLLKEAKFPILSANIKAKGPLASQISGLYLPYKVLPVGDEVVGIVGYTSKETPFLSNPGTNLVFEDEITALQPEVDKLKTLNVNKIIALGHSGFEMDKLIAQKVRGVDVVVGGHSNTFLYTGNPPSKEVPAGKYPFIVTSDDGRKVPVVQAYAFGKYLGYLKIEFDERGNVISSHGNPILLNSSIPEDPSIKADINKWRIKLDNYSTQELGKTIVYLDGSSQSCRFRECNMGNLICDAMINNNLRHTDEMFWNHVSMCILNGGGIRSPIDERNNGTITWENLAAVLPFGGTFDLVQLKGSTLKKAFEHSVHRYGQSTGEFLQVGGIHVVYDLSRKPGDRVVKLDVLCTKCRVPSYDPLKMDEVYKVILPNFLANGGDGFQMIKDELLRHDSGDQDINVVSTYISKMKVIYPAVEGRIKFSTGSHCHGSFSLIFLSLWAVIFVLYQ

IC50 (CD73 [1]) | EC50 (CD73 [2]) | EC50 (CD73 [3]) | IC50 (CD73 [4]) | Compound
196 nM | 23.2 nM |  |  | 5-(8-((1S,2S)-2-phenylcyclopropyl)imidazo[1,2-b]pyridazin-6-yl)pyrimidine-2,4-(1H,3H)-dione and 5-(8-((1R,2R)-2-phenylcyclopropyl)imidazo[1,2-b]pyridazin-6-yl)pyrimidine-2,4-(1H,3H)-dione [Example 104]
 | 16.7 nM |  |  | O=c1[nH]cc(-c2cc([C@H]3C[C@@H]3c3ccc(OC(F)(F)F)cc3)c3nccn3n2)c(=O)[nH]1 (mixture of isomers) [Example 48, 5-(8-((1S,2S)-2-(4-(trifluoromethoxy)phenyl)cyclopropyl)imidazo[1,2-b]pyridazin-6-yl)pyrimidine-2,4(1H,3H)-dione and 5-(8-((1R,2R)-2-(4-(trifluoromethoxy)phenyl)cyclopropyl)imidazo[1,2-b]pyridazin-6-yl)pyrimidine-2,4(1H,3H)-dione]
 | 2.87 nM | 7.67 nM |  | N#Cc1cc([C@H]2C[C@@H]2c2cc(-c3c[nH]c(=O)[nH]c3=O)nn3ccnc23)ccc1F (mixture of isomers) [Example 64, 5-((1S,2S)-2-(6-(2,4-dioxo-1,2,3,4-tetrahydropyrimidin-5-yl)imidazo[1,2-b]pyridazin-8-yl)cyclopropyl)-2-fluorobenzonitrile and 5-((1R,2R)-2-(6-(2,4-dioxo-1,2,3,4-tetrahydropyrimidin-5-yl)imidazo[1,2-b]pyridazin-8-yl)cyclopropyl)-2-fluorobenzonitrile]
 | 27.5 nM |  |  | O=c1[nH]cc(-c2cc([C@H]3C[C@@H]3c3ccc(C(F)(F)F)c(F)c3)c3nccn3n2)c(=O)[nH]1 (mixture of isomers) [Example 100, 5-(8-((1S,2S)-2-(3-fluoro-4-(trifluoromethyl)phenyl)cyclopropyl)imidazo[1,2-b]pyridazin-6-yl)pyrimidine-2,4(1H,3H)-dione and 5-(8-((1R,2R)-2-(3-fluoro-4-(trifluoromethyl)phenyl)cyclopropyl)imidazo[1,2-b]pyridazin-6-yl)pyrimidine-2,4(1H,3H)-dione]
 | 3.25 nM |  |  | COc1ccccc1[C@H]1C[C@@H]1c1cc(-c2c[nH]c(=O)[nH]c2=O)nn2ccnc12 (mixture of isomers) [Example 101, 5-(8-((1S,2S)-2-(2-methoxyphenyl)cyclopropyl)imidazo[1,2-b]pyridazin-6-yl)pyrimidine-2,4(1H,3H)-dione and 5-(8-((1R,2R)-2-(2-methoxyphenyl)cyclopropyl)imidazo[1,2-b]pyridazin-6-yl)pyrimidine-2,4(1H,3H)-dione]
 | 93.5 nM |  |  | O=c1[nH]cc(-c2cc([C@H]3C[C@@H]3C3CC(F)(F)C3)c3nccn3n2)c(=O)[nH]1 (mixture of isomers) [Example 106, 5-(8-((1S,2R)-2-(3,3-difluorocyclobutyl)cyclopropyl)imidazo[1,2-b]pyridazin-6-yl)pyrimidine-2,4(1H,3H)-dione and 5-(8-((1R,2S)-2-(3,3-difluorocyclobutyl)cyclopropyl)imidazo[1,2-b]pyridazin-6-yl)pyrimidine-2,4(1H,3H)-dione]
 | 55 nM |  |  | O=c1[nH]cc(-c2cc([C@H]3C[C@@H]3C(F)(F)F)c3nccn3n2)c(=O)[nH]1 (mixture of isomers) [Example 107, 5-(8-((1S,2S)-2-(trifluoromethyl)cyclopropyl)imidazo[1,2-b]pyridazin-6-yl)pyrimidine-2,4(1H,3H)-dione and 5-(8-((1R,2R)-2-(trifluoromethyl)cyclopropyl)imidazo[1,2-b]pyridazin-6-yl)pyrimidine-2,4(1H,3H)-dione]
 | 23.8 nM |  |  | O=c1[nH]cc(-c2cc([C@H]3C[C@]3(F)c3ccccc3)c3nccn3n2)c(=O)[nH]1 (mixture of isomers) [Example 108, 5-(8-((1R,2R)-2-fluoro-2-phenylcyclopropyl)imidazo[1,2-b]pyridazin-6-yl)pyrimidine-2,4(1H,3H)-dione and 5-(8-((1S,2S)-2-fluoro-2-phenylcyclopropyl)imidazo[1,2-b]pyridazin-6-yl)pyrimidine-2,4(1H,3H)-dione]
195 nM and 231 nM | 191 nM and 285 nM |  |  | COC[C@H]1C[C@@H]1c1cc(-c2c[nH]c(=O)[nH]c2=O)nn2ccnc12 (racemic) [Example 4, 5-(8-((1S,2S)-2-(methoxymethyl)cyclopropyl)imidazo[1,2-b]pyridazin-6-yl)pyrimidine-2,4(1H,3H)-dione and 5-(8-((1R,2R)-2-(methoxymethyl)cyclopropyl)imidazo[1,2-b]pyridazin-6-yl)pyrimidine-2,4(1H,3H)-dione]
 | 13.4 nM | 28.4 nM |  | O=c1[nH]cc(-c2cc(N3C[C@@H](F)[C@@H](F)C3)c3nccn3n2)c(=O)[nH]1 [Example 77, 5-[8-[(3S,4R)-3,4-difluoropyrrolidin-1-yl]imidazo[1,2-b]pyridazin-6-yl]-1H-pyrimidine-2,4-dione and 5-[8-[(3R,4S)-3,4-difluoropyrrolidin-1-yl]imidazo[1,2-b]pyridazin-6-yl]-1H-pyrimidine-2,4-dione]
 |  | 0.19 nM | 0.7 nM | Cc1cc([C@H]2C[C@@H]2c2cc(-c3c[nH]c(=O)[nH]c3=O)nn3ccnc23)cc2c1cnn2CC(F)(F)F [Example 714, 5-(8-((1S,2S)-2-(4-methyl-1-(2,2,2-trifluoroethyl)-1H-indazol-6-yl)cyclopropyl)imidazo[1,2-b]pyridazin-6-yl)pyrimidine-2,4(1H,3H)-dione]
 |  | 0.32 nM | 1.42 nM | O=C1N(CC(F)(F)F)c2cc([C@H]3C[C@@H]3c3cc(-c4c[nH]c(=O)[nH]c4=O)nc4ccnn34)ccc2C12CC2 [Example 715, 5-(7-((1S,2S)-2-(2′-oxo-1′-(2,2,2-trifluoroethyl)spiro[cyclopropane-1,3′-indolin]-6′-yl)cyclopropyl)pyrazolo[1,5-a]pyrimidin-5-yl)pyrimidine-2,4(1H,3H)-dione]
 |  | 0.28 nM | 0.35 nM | O=c1[nH]cc(-c2cc([C@H]3C[C@@H]3c3ccc4cnn(CC(F)(F)F)c4c3)n3ncc(F)c3n2)c(=O)[nH]1 [Example 716, 5-(3-fluoro-7-((1S,2S)-2-(1-(2,2,2-trifluoroethyl)-1H-indazol-6-yl)cyclopropyl)pyrazolo[1,5-a]pyrimidin-5-yl)pyrimidine-2,4(1H,3H)-dione]
 |  | 0.26 nM | 0.69 nM | O=c1[nH]cc(-c2cc([C@H]3C[C@@H]3c3cnc4c(F)nn(CC(F)(F)F)c4c3)c3nccn3n2)c(=O)[nH]1 [Example 717, 5-[8-[(1S,2S)-2-[3-fluoro-1-(2,2,2-trifluoroethyl)pyrazolo[4,3-b]pyridin-6-yl]cyclopropyl]imidazo[1,2-b]pyridazin-6-yl]-1H-pyrimidine-2,4-dione]
 |  | 0.46 nM | 0.51 nM | O=c1[nH]cc(-c2cc([C@H]3C[C@@H]3c3cnc4c(F)nn(CC(F)(F)F)c4c3)c3ncc(Cl)n3n2)c(=O)[nH]1 [Example 719, 5-[3-chloro-8-[(1S,2S)-2-[3-fluoro-1-(2,2,2-trifluoroethyl)pyrazolo[4,3-b]pyridin-6-yl]cyclopropyl]imidazo[1,2-b]pyridazin-6-yl]-1H-pyrimidine-2,4-dione]
 |  | 0.32 nM | 0.77 nM | O=c1[nH]cc(-c2cc([C@H]3C[C@@H]3c3ccc4c(F)nn(CC(F)(F)F)c4c3)c3ncc(Cl)n3n2)c(=O)[nH]1 [Example 721, 5-[3-chloro-8-[(1S,2S)-2-[3-fluoro-1-(2,2,2-trifluoroethyl)indazol-6-yl]cyclopropyl]imidazo[1,2-b]pyridazin-6-yl]-1H-pyrimidine-2,4-dione]
 |  | 0.58 nM | 1.1 nM | CC1(C)C(=O)N(CC(F)(F)F)c2cc([C@H]3C[C@@H]3c3cc(-c4c[nH]c(=O)[nH]c4=O)nn4c(Cl)cnc34)ccc21 [Example 722, 5-[3-chloro-8-[(1S,2S)-2-[3,3-dimethyl-2-oxo-1-(2,2,2-trifluoroethyl)indolin-6-yl]cyclopropyl]imidazo[1,2-b]pyridazin-6-yl]-1H-pyrimidine-2,4-dione]
 |  | 1.04 nM | 2.75 nM | CC1(C)C(=O)N(CC(F)(F)F)c2cc([C@H]3C[C@@H]3c3cc(-c4c[nH]c(=O)[nH]c4=O)nn4c(F)cnc34)cnc21 [Example 723, 5-[8-[(1S,2S)-2-[3,3-dimethyl-2-oxo-1-(2,2,2-trifluoroethyl)pyrrolo[3,2-b]pyridin-6-yl]cyclopropyl]-3-fluoro-imidazo[1,2-b]pyridazin-6-yl]-1H-pyrimidine-2,4-dione]
 |  | 0.69 nM | 0.62 nM | O=c1[nH]cc(-c2cc(N3C[C@H](Oc4ccc(F)c(C(F)F)c4)C(F)(F)C3)c3nccn3n2)c(=O)[nH]1 [Example 745, (S)-5-(8-(4-(3-(difluoromethyl)-4-fluorophenoxy)-3,3-difluoropyrrolidin-1-yl)imidazo[1,2-b]pyridazin-6-yl)pyrimidine-2,4(1H,3H)-dione]

Compound | IC50 (CD73 [1]) | EC50 (CD73 [2]) | EC50 (CD73 [3]) | IC50 (CD73 [4])
5-(8-((1S,2S)-2-(2,3,5-trifluorophenyl)cyclopropyl)imidazo[1,2-b]pyridazin-6-yl)pyrimidine-2,4(1H,3H)-dione and 5-(8-((1R,2R)-2-(2,3,5-trifluorophenyl)cyclopropyl)imidazo[1,2-b]pyridazin-6-yl)pyrimidine-2,4(1H,3H)-dione [Example 61] | 12.1 nM | 16.6 nM |  | 
